The numbers were not newly measured in US9185913B2, “10H-benzo[g]pteridine-2,4-dione derivatives, method for the production thereof, and use thereof” (TRIOPTOTEC GMBH, priority 2011, dated 2015), which cites them from elsewhere.

Data set [1] has as its system microorganisms.
The test system of data set [2] is microorganisms. The source holds these as a separate data set.

Take `CC(=O)OC[C@@H](OC(C)=O)[C@@H](OC(C)=O)[C@H](Cn1c2nc(=O)[nH]c(=O)c-2nc2cc(C)c(C)cc21)OC(C)=O` [tetraacetylriboflavin]: in data set [1], the Affinity for microorganisms result is recorded as “low”. Besides, in data set [2], the Inactivation of microorganisms result was “inadequate”.

Regarding `Cc1cc2nc3c(=O)[nH]c(=O)nc-3n(C[C@H](O)[C@H](O)[C@H](O)CO)c2cc1C` [riboflavin], in data set [1], the Affinity for microorganisms result is “low”. In addition, in data set [2], the Inactivation of microorganisms entry is on record as “inadequate”.
